The values that follow are results of earlier work, collected in patent US20090093463A1, “NOVEL COMPOUNDS OF SUBSTITUTED AND UNSUBTITUTED ADAMANTYL AMIDES” (AGOURON PHARMACEUTICALS INC., priority 2004, published 2009).

Data set [1] addresses T1, 11-β-hsd-1 (Homo sapiens, UniProt P28845).
T1 construct: host or cells: normal subjects (in vivo)
To be noted: ingestion, normal subjects.

For data set [2], the target named is T1, 11-β-hsd-1. The following applies: healthy human volunteers.

T1 sequence (P28845 whole entry): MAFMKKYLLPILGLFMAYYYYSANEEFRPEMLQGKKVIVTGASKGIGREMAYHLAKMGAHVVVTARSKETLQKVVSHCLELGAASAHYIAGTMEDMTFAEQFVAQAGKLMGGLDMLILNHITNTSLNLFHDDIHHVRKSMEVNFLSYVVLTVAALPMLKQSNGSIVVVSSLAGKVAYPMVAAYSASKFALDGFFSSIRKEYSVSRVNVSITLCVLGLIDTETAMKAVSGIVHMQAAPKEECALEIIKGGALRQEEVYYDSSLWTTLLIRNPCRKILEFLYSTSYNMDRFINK

For the compound `CC1(C)[C@@H](OC(=O)CCC(=O)O)CC[C@]2(C)[C@H]3C(=O)C=C4[C@@H]5C[C@@](C)(C(=O)O)CC[C@]5(C)CC[C@@]4(C)[C@]3(C)CC[C@@H]12` [carbenoxolone], the “reduction of intraocular pressure” value on 11-β-hsd-1 [1] was 20%. Moreover, at 11-β-hsd-1 [2], the hepatic insulin sensitivity entry was “improved”.
